This note sets out measurements from ChEMBL document CHEMBL2375330, “Synthesis of pyrazole encompassing 2-pyridone derivatives as antibacterial agents” (Bioorg Med Chem Lett, 2013).

One assay relates to HeLa. As to the kind of experiment: Cytotoxicity against human HeLa cells by MTT assay. The assay is classed as cell-based. (Tetrazolium assays rely on reduction of a dye to a coloured formazan, in cell work by metabolically active cells.)
The next assay has as its system Staphylococcus aureus. As to the kind of experiment: Antibacterial activity against Staphylococcus aureus MTCC 96 by broth dilution method. The assay is classed as functional. On the technique in general: Broth dilution looks for growth in wells or tubes with falling amounts of substance.
In another assay the test system is Pseudomonas aeruginosa. The experiment in a line: microbe, parasite or virus in culture. The assay is classed as functional. The note with it: MTCC 1688.
The next assay relates to Escherichia coli. The experiment in a line: microbe, parasite or virus in culture. The assay is classed as functional. Particulars: MTCC 443.
The next assay relates to Streptococcus pyogenes. The experiment in a line: microbe, parasite or virus in culture. The assay is classed as functional. The note with it: MTCC 442.
The next assay concerns NIH3T3. The experiment in a line: Cytotoxicity against mouse NIH/3T3 cells by MTT assay. The assay is classed as cell-based.

≈ marks a conversion by molar mass, not a printed value.

By IC50 is commonly meant the concentration needed to halve the response being measured. Read a low IC50 as higher potency.

Description for Escherichia coli: Antibacterial activity against Escherichia coli MTCC 443 by broth dilution method
Description for Pseudomonas aeruginosa: Antibacterial activity against Pseudomonas aeruginosa MTCC 1688 by broth dilution method
Description for Streptococcus pyogenes: Antibacterial activity against Streptococcus pyogenes MTCC 442 by broth dilution method

In the case of `N#Cc1c(-c2cccc([N+](=O)[O-])c2)c(C#N)c(=O)n(/N=C/c2cn(-c3ccccc3)nc2-c2ccccc2)c1N`, the figures for the IC50 in the assay on HeLa and with NIH3T3 were greater than 200 µg/mL and 124 µg/mL (≈ 236 µM), respectively. In addition, the MIC in the assay on Staphylococcus aureus came to 250 µg/mL (≈ 475 µM); against Pseudomonas aeruginosa it was 100 µg/mL (≈ 190 µM); against Escherichia coli it was 100 µg/mL (≈ 190 µM); in the assay with Streptococcus pyogenes, 50 µg/mL (≈ 95 µM).
`N#Cc1c(-c2ccc([N+](=O)[O-])cc2)c(C#N)c(=O)n(/N=C/c2cn(-c3ccccc3)nc2-c2ccccc2)c1N`: the IC50 in the assay with HeLa was greater than 200 µg/mL; with NIH3T3, 84 µg/mL (≈ 160 µM). Also, the MIC against Staphylococcus aureus was found to be 50 µg/mL (≈ 95 µM); against Pseudomonas aeruginosa it was 25 µg/mL (≈ 47.5 µM); with Escherichia coli, 12.5 µg/mL (≈ 23.7 µM); against Streptococcus pyogenes, 12.5 µg/mL (≈ 23.7 µM).
Regarding `N#Cc1c(-c2ccccc2Br)c(C#N)c(=O)n(/N=C/c2cn(-c3ccccc3)nc2-c2ccccc2)c1N`, the IC50 in the assay with HeLa is greater than 200 µg/mL; in the assay on NIH3T3 it was 174 µg/mL (≈ 310 µM). Besides, the MIC against Staphylococcus aureus came to 12.5 µg/mL (≈ 22.3 µM); in the assay with Pseudomonas aeruginosa, 250 µg/mL (≈ 446 µM); with Escherichia coli it was 100 µg/mL (≈ 178 µM); against Streptococcus pyogenes, 250 µg/mL (≈ 446 µM).
Regarding `N#Cc1c(-c2cccc(Br)c2)c(C#N)c(=O)n(/N=C/c2cn(-c3ccccc3)nc2-c2ccccc2)c1N`, the IC50 in the assay with HeLa is greater than 200 µg/mL; with NIH3T3, 42 µg/mL (≈ 74.9 µM). The MIC in the assay on Staphylococcus aureus came out at 250 µg/mL (≈ 446 µM); in the assay with Pseudomonas aeruginosa, 250 µg/mL (≈ 446 µM); in the assay on Escherichia coli it was 100 µg/mL (≈ 178 µM); against Streptococcus pyogenes, 500 µg/mL (≈ 892 µM).
With `N#Cc1c(-c2ccc(Br)cc2)c(C#N)c(=O)n(/N=C/c2cn(-c3ccccc3)nc2-c2ccccc2)c1N`, the IC50 in the assay on HeLa and with NIH3T3 was greater than 200 µg/mL in each case. Further, the MIC turned out to be 12.5 µg/mL (≈ 22.3 µM) with Staphylococcus aureus, 100 µg/mL (≈ 178 µM) against Pseudomonas aeruginosa, 500 µg/mL (≈ 892 µM) in the assay on Escherichia coli and 100 µg/mL (≈ 178 µM) with Streptococcus pyogenes.
Turning to `N#Cc1c(-c2ccccc2C(F)(F)F)c(C#N)c(=O)n(/N=C/c2cn(-c3ccccc3)nc2-c2ccccc2)c1N`, the IC50 with HeLa was greater than 200 µg/mL; in the assay on NIH3T3, 56 µg/mL (≈ 102 µM). Further, the MIC came out at 100 µg/mL (≈ 182 µM) against Staphylococcus aureus, 250 µg/mL (≈ 455 µM) with Pseudomonas aeruginosa, 100 µg/mL (≈ 182 µM) in the assay on Escherichia coli and 250 µg/mL (≈ 455 µM) against Streptococcus pyogenes.
As for `N#Cc1c(-c2ccc(C(F)(F)F)cc2)c(C#N)c(=O)n(/N=C/c2cn(-c3ccccc3)nc2-c2ccccc2)c1N`, the half-inhibitory concentration (IC50) in the assay on HeLa and in the assay on NIH3T3 was greater than 200 µg/mL each time. Also, the MIC against Staphylococcus aureus was 25 µg/mL (≈ 45.5 µM); against Pseudomonas aeruginosa it was 25 µg/mL (≈ 45.5 µM); against Escherichia coli it was 250 µg/mL (≈ 455 µM); in the assay on Streptococcus pyogenes it was 250 µg/mL (≈ 455 µM).
For the compound `N#Cc1c(-c2ccccc2)c(C#N)c(=O)n(/N=C/c2cn(-c3ccccc3)nc2-c2ccccc2)c1N`, the IC50 with HeLa is greater than 200 µg/mL; in the assay with NIH3T3, 180 µg/mL (≈ 374 µM). In addition, the MIC in the assay with Staphylococcus aureus stood at 500 µg/mL (≈ 1040 µM); against Pseudomonas aeruginosa it was 500 µg/mL (≈ 1040 µM); against Escherichia coli, 250 µg/mL (≈ 519 µM); with Streptococcus pyogenes, 500 µg/mL (≈ 1040 µM).
On to `N#Cc1c(-c2ccccc2O)c(C#N)c(=O)n(/N=C/c2cn(-c3ccccc3)nc2-c2ccccc2)c1N`, for which the IC50 in the assay with HeLa was greater than 200 µg/mL; with NIH3T3, 162 µg/mL (≈ 326 µM). In addition, the MIC against Staphylococcus aureus was 500 µg/mL (≈ 1000 µM); against Pseudomonas aeruginosa, 500 µg/mL (≈ 1000 µM); in the assay with Escherichia coli, 500 µg/mL (≈ 1000 µM); against Streptococcus pyogenes, 250 µg/mL (≈ 502 µM).
As for `N#Cc1c(-c2ccc(O)cc2)c(C#N)c(=O)n(/N=C/c2cn(-c3ccccc3)nc2-c2ccccc2)c1N`, the results for the IC50 in the assay on HeLa and in the assay on NIH3T3 were greater than 200 µg/mL and 110 µg/mL (≈ 221 µM), respectively. The MIC against Staphylococcus aureus, with Pseudomonas aeruginosa, against Escherichia coli and in the assay with Streptococcus pyogenes was 500 µg/mL (≈ 1000 µM) in each case.
In the case of `N#Cc1c(-c2ccccc2Cl)c(C#N)c(=O)n(/N=C/c2cn(-c3ccccc3)nc2-c2ccccc2)c1N`, the concentration for half-maximal inhibition (IC50) in the assay with HeLa is greater than 200 µg/mL; in the assay on NIH3T3, 84 µg/mL (≈ 163 µM). In addition, the MIC against Staphylococcus aureus, in the assay on Pseudomonas aeruginosa, in the assay with Escherichia coli and in the assay with Streptococcus pyogenes was 100 µg/mL (≈ 194 µM) throughout.
With `N#Cc1c(-c2cccc(Cl)c2)c(C#N)c(=O)n(/N=C/c2cn(-c3ccccc3)nc2-c2ccccc2)c1N`, the IC50 in the assay on HeLa is greater than 200 µg/mL; in the assay on NIH3T3, 52 µg/mL (≈ 101 µM). The MIC in the assay on Staphylococcus aureus turned out to be 500 µg/mL (≈ 969 µM); against Pseudomonas aeruginosa, 250 µg/mL (≈ 485 µM); in the assay with Escherichia coli it was 50 µg/mL (≈ 96.9 µM); against Streptococcus pyogenes it was 100 µg/mL (≈ 194 µM).
As to `N#Cc1c(-c2ccc(Cl)cc2)c(C#N)c(=O)n(/N=C/c2cn(-c3ccccc3)nc2-c2ccccc2)c1N`, the concentration for half-maximal inhibition (IC50) in the assay on HeLa is greater than 200 µg/mL; in the assay on NIH3T3 it was 64 µg/mL (≈ 124 µM). Moreover, the MIC came to 100 µg/mL (≈ 194 µM) in the assay with Staphylococcus aureus, 500 µg/mL (≈ 969 µM) in the assay with Pseudomonas aeruginosa, 500 µg/mL (≈ 969 µM) with Escherichia coli and 12.5 µg/mL (≈ 24.2 µM) against Streptococcus pyogenes.
Consider `N#Cc1c(-c2ccccc2F)c(C#N)c(=O)n(/N=C/c2cn(-c3ccccc3)nc2-c2ccccc2)c1N`, for which the IC50 in the assay with HeLa and in the assay on NIH3T3 was greater than 200 µg/mL in each case. Further, the MIC in the assay with Staphylococcus aureus was found to be 25 µg/mL (≈ 50 µM); in the assay on Pseudomonas aeruginosa, 50 µg/mL (≈ 100 µM); against Escherichia coli it was 250 µg/mL (≈ 500 µM); in the assay with Streptococcus pyogenes, 25 µg/mL (≈ 50 µM).
On to `N#Cc1c(-c2cccc(F)c2)c(C#N)c(=O)n(/N=C/c2cn(-c3ccccc3)nc2-c2ccccc2)c1N`, for which the IC50 in the assay with HeLa is greater than 200 µg/mL; in the assay with NIH3T3, 154 µg/mL (≈ 308 µM). Moreover, the MIC amounted to 50 µg/mL (≈ 100 µM) with Staphylococcus aureus, 50 µg/mL (≈ 100 µM) in the assay on Pseudomonas aeruginosa, 100 µg/mL (≈ 200 µM) in the assay with Escherichia coli and 50 µg/mL (≈ 100 µM) in the assay with Streptococcus pyogenes.
For the compound `N#Cc1c(-c2ccc(F)cc2)c(C#N)c(=O)n(/N=C/c2cn(-c3ccccc3)nc2-c2ccccc2)c1N`, the IC50 with HeLa and in the assay on NIH3T3 was greater than 200 µg/mL in each case. Besides, the MIC amounted to 12.5 µg/mL (≈ 25 µM) in the assay with Staphylococcus aureus, 25 µg/mL (≈ 50 µM) with Pseudomonas aeruginosa, 12.5 µg/mL (≈ 25 µM) against Escherichia coli and 100 µg/mL (≈ 200 µM) against Streptococcus pyogenes.
As for `Cc1ccc(-c2c(C#N)c(N)n(/N=C/c3cn(-c4ccccc4)nc3-c3ccccc3)c(=O)c2C#N)cc1`, the half-maximal inhibitory concentration (IC50) was greater than 200 µg/mL in the assay on HeLa and 98 µg/mL (≈ 198 µM) in the assay with NIH3T3. Moreover, the MIC with Staphylococcus aureus was 500 µg/mL (≈ 1010 µM); with Pseudomonas aeruginosa, 250 µg/mL (≈ 504 µM); against Escherichia coli it was 500 µg/mL (≈ 1010 µM); against Streptococcus pyogenes it was 250 µg/mL (≈ 504 µM).
Turning to `COc1ccc(-c2c(C#N)c(N)n(/N=C/c3cn(-c4ccccc4)nc3-c3ccccc3)c(=O)c2C#N)cc1`, the IC50 in the assay with HeLa is greater than 200 µg/mL; in the assay with NIH3T3 it was 50 µg/mL (≈ 97.7 µM). Besides, the MIC turned out to be 500 µg/mL (≈ 977 µM) in the assay on Staphylococcus aureus, 500 µg/mL (≈ 977 µM) in the assay on Pseudomonas aeruginosa, 500 µg/mL (≈ 977 µM) against Escherichia coli and 250 µg/mL (≈ 489 µM) against Streptococcus pyogenes.
For the compound `COc1cc(-c2c(C#N)c(N)n(/N=C/c3cn(-c4ccccc4)nc3-c3ccccc3)c(=O)c2C#N)cc(OC)c1OC`, the IC50 in the assay on HeLa was greater than 200 µg/mL; in the assay with NIH3T3, 64 µg/mL (≈ 112 µM). Besides, the MIC in the assay on Staphylococcus aureus is 500 µg/mL (≈ 875 µM); in the assay on Pseudomonas aeruginosa, 250 µg/mL (≈ 437 µM); with Escherichia coli, 500 µg/mL (≈ 875 µM); with Streptococcus pyogenes, 250 µg/mL (≈ 437 µM).
For the compound `N#Cc1c(-c2ccccc2[N+](=O)[O-])c(C#N)c(=O)n(/N=C/c2cn(-c3ccccc3)nc2-c2ccccc2)c1N`, the IC50 in the assay with HeLa and in the assay with NIH3T3 was greater than 200 µg/mL each time. The MIC with Staphylococcus aureus was 25 µg/mL (≈ 47.5 µM); with Pseudomonas aeruginosa, 100 µg/mL (≈ 190 µM); with Escherichia coli, 25 µg/mL (≈ 47.5 µM); in the assay on Streptococcus pyogenes it was 250 µg/mL (≈ 475 µM).
For the compound `O=C(O)c1cn(C2CC2)c2cc(N3CCNCC3)c(F)cc2c1=O` [CIPROFLOXACIN], the MIC was 50 µg/mL (≈ 151 µM) in the assay on Staphylococcus aureus, 25 µg/mL (≈ 75.4 µM) against Escherichia coli and 50 µg/mL (≈ 151 µM) against Streptococcus pyogenes.
